Results on nine compounds are retold here after patent US20080039320A1 (priority 2004, published 2008).

Experiment [1] relates to Puccinia recondita. The experiment can be described thus: 6 day protective activity against brown rust of wheat, foliar spray (Use Example 4). It is filed as in vivo. The conditions noted are these: wheat seedlings. On the procedure: (§1) The active compounds were prepared separately as a stock solution with 0.25% by weight of active compound in acetone or DMSO. 1% by weight of the emulsifier Uniperol® EL (wetting agent having emulsifying and dispersing action based on ethoxylated alkylphenols) was added to this solution, and the mixture was diluted with water to the desired concentration.
(§2) The visually determined percentages of infected leaf areas were converted into efficacies in % of the untreated control:
(§3) The efficacy (E) is calculated as follows using Abbot's formula: E=(1−α/β)·100 α corresponds to the fungicidal infection of the treated plants in % and β corresponds to the fungicidal infection of the untreated (control) plants in % An efficacy of 0 means that the infection level of the treated plants corresponds to that of the untreated control plants; an efficacy of 100 means that the treated plants were not infected.
(§4) The expected efficacies of active compound combinations were determined using Colby's formula (Colby, S. R. “Calculating synergistic and antagonistic responses of herbicide combinations”, Weeds, 15, 20-22, 1967) and compared with the observed efficacies.
(§5) Colby's formula: E=x+y−x·y/100
6 Day Protective Activity Against Puccinia recondita on Wheat (Brown Rust of Wheat) Leaves of potted wheat seedlings of the cultivar “Kanzler” were sprayed to runoff point with an aqueous suspension having the concentration of active compound stated below. After six days, the treated plants were inoculated with a spore suspension of brown rust of wheat (Puccinia recondite). The plants were then placed in a chamber of high atmospheric humidity (90 to 95%) at 20 to 22° C. for 24 hours. During this time, the spores germinated and the germ tubes penetrated into the leaf tissue. The next day, the test plants were returned to the greenhouse and cultivated at temperatures between 20 and 22° C. and at 65 to 70% relative atmospheric humidity for a further 7 days. The extent of the rust fungus development on the leaves was then determined visually.

Experiment [2] has as its system Puccinia recondita. The experiment can be described thus: Protective activity against brown rust of wheat, menadione watered in, partner sprayed 6 days later (Use Example 2). It counts as in vivo. The note with it: wheat seedlings. The method, then: as §1, §2, §3, §4
Colby's formula: E=x+y−x·y/100 […]

The subject of experiment [3] is Phytophthora infestans. It counts as in vivo. The conditions noted are these: tomato plants.
For experiment [4], the system named is Pyrenophora teres. The experiment can be described thus: Activity against net blotch of barley, 6 day protective application (Use Example 3). The note with it: barley seedlings. It counts as in vivo, Pyrenophora [syn. Drechslera] teres. The method, then: as §1, §2, §3, §4, §5
Activity Against Net Blotch of Barley Caused by Pyrenophora teres, 6 Day Protective Application Leaves of potted barley seedlings were sprayed to runoff point with an aqueous suspension having the concentration of active compound stated below. After 6 days, the test plants were inoculated with an aqueous spore suspension of Pyrenophora [syn. Drechslera] teres, the net blotch pathogen. The test plants were then placed in a greenhouse at temperatures between 20 and 24° C. and 95 to 100% relative atmospheric humidity. After 6 days, the extent of the development of the disease was determined visually in % infection of the total leaf area.

In experiment [5] the test system is Erysiphe [syn. Blumeria] graminis forma specialis. tritici. Put plainly: Activity against mildew of wheat, 6 day protective application (Use Example 6). It is filed as in vivo. The note with it: wheat seedlings. The method, then:
as §1, §2, §3, §4, §5
Activity Against Mildew of Wheat Caused by Erysiphe [syn. Blumeria] graminis Forma Specialis. Tritici, 6 Day Protective Application Leaves of potted wheat seedlings of the cultivar “Kanzler” were sprayed to runoff point with an aqueous suspension having the concentration of active compound stated below. The suspension or emulsion had been prepared as described above. 6 days after the application of the active compound, the plants were dusted with spores of mildew of wheat (Erysiphe [syn. Blumeria] graminis forma specialis. tritici). The test plants were then placed in a greenhouse at temperatures between 20 and 24° C. and at 60 to 90% relative atmospheric humidity. After 7 days, the extent of the mildew development was determined visually in % infection of the total leaf area.

Experiment [6] deals with Pyricularia oryzae. It is filed as in vivo. The note with it: rice seedlings.
Experiment [7] deals with phytopathogenic fungi. The experiment can be described thus: Fungicidal tests, overall statements. It counts as in vivo. The note with it: menadione on its own. The method, then:
as §1, §2
The efficacy (E) is calculated as follows using Abbot's formula: E=(1−α/β)·100
as §4, §5

Read-outs that look alike come from different tables or passages of the source.

Consider `Fc1ccc([C@]2(Cn3cncn3)O[C@H]2c2ccccc2Cl)cc1` (racemic) [epoxiconazole, (2RS,3SR)-1-[3-(2-chlorophenyl)-2,3-epoxy-2-(4-fluorophenyl)propyl]-1H-1,2,4-triazole], for which the “Observed effect (%)” value in experiment [1] (1 ppm) was determined as 22%.
On to `O=C(Nc1ccccc1-c1ccc(Cl)cc1)c1cccnc1Cl` [boscalid, 2-chloro-N-(4′-chlorobiphenyl-2-yl)nicotinamide], for which the “Observed effect (%)” value in experiment [1] (63 ppm) came to 22%.
Take `CC1CCN(c2c(-c3c(F)cc(F)cc3F)c(Cl)nc3ncnn23)CC1` [compound A, 5-Chloro-7-(4-methylpiperidin-1-yl)-6-(2,4,6-trifluorophenyl)-[1,2,4]triazolo[1,5-a]pyrimidine]: the “Observed effect (%)” value in experiment [1] (63 ppm) is listed as 22%; in experiment [2] (4 ppm, sprayed to runoff) it was 25%.
Regarding `COc1ccc(C(=CC(=O)N2CCOCC2)c2ccc(Cl)cc2)cc1OC` [dimethomorph, 3-(4-chlorophenyl)-3-(3,4-dimethoxyphenyl)-1-morpholin-4-ylpropenone], in experiment [3] (16 ppm), the “Observed effect (%)” value worked out at 37%.
As for `CC(C)NC(=O)N1CC(=O)N(c2cc(Cl)cc(Cl)c2)C1=O` [iprodione, N-isopropyl-3-(3,5-dichlorophenyl)-2,4-dioxoimidazolidine-1-carboxamide], in experiment [4] (250 ppm), the “Observed effect (%)” value was found to be 22%.
`CC1=CC(=O)c2ccccc2C1=O` [menadione, 2-methyl-1,4-naphthoquinone]: the “Observed effect (%)” value in experiment [1] (1 ppm) is reported as 0%; in experiment [1] (16 ppm), 25%; in experiment [4] (16 ppm) it was 0%; in experiment [4] (63 ppm) it was 0%; in experiment [5] (16 ppm), 0%; in experiment [2] (3.6%, watered with 2 ml aqueous suspension comprising 71 mg) it was 0%. For the same compound, the “Observed effect (%)” value in experiment [3] (63 ppm) worked out at 27%; in experiment [6] (250 ppm, efficacy in % of untreated control (Abbot)), 0%. Also, the “fungicidal action against phytopathogenic fungi” value in experiment [7] was “no fungicidal action”.
Take `COc1cc(C)c(C(=O)c2c(OC)ccc(Br)c2C)c(OC)c1OC` [metrafenone, 3′-bromo-2,3,4,6′-tetramethoxy-2′,6-dimethylbenzophenone]: the “Observed effect (%)” value in experiment [5] (63 ppm) is 67%.
As to `COC(=O)N(OC)c1ccccc1COc1ccn(-c2ccc(Cl)cc2)n1` [pyraclostrobin, methyl N-{2-[1-(4-chlorophenyl)-1H-pyrazol-3-yloxymethyl]phenyl}(N-methoxy)carbamate], in experiment [6] (1 ppm, applied 1 day before inoculation), the “Observed effect (%)” value came to 20%.
With “zinc ammoniate ethylenebis(dithiocarbamate) [metiram]”, the “Observed effect (%)” value in experiment [5] (63 ppm) is 0%.
